The values below are quoted from earlier work in patent US8394592B2, “Methods for assessing cancer susceptibility to carcinogens in tobacco products” (The Board of Regents of the University of Texas System, priority 2006, dated 2013).

The subject of this data set is Swiss mice. The conditions noted are these: micronucleus test in Swiss mice; cited from earlier work.

In the case of `CN(CCCC(=O)c1cccnc1)N=O` [NNK, 4-(methylnitrosamino)-1-(3-pyridyl)-1-butanone], the mutagenicity result is “potent mutagen”.
